According to ChEMBL document CHEMBL3885861, “Open TG-GATES”:

Organism: Rattus norvegicus
Assay: Open TG-GATES - Regimen: Daily Repeat
Type: toxicity, organism-based, Sprague-Dawley
Set-up: regimen Daily Repeat, gender Male, age 6 weeks
Conditions: in vivo, po, 300 mg/kg, route gavage, dose level High; for APTT / Bas / Eos / Fbg / Hb / Ht / Lym / MCH / MCHC / MCV / Mono / Neu / PT / Plat / RBC / Ret / WBC: tissue Blood; for KIDNEY_L / KIDNEY_R / KIDNEY_TOTAL: tissue Kidney; for LIVER: tissue Liver; for ALP / ALT / AST / BUN / CRE / DBIL / GLC / IP / K / LDH / Na / PL / RALB / TBIL / TC / TG / TP / gamma-GTP: tissue Plasma

Work on `Clc1ccccc1CN1CCc2sccc2C1` [TICLOPIDINE] yielded a TERMINAL_BW (72 h, time 3 day) of 211.5 g, an APTT (72 h, time 3 day) of 25.4 s and a Bas (72 h, time 3 day) of 0.6%. The Eos (72 h, time 3 day) was 0.8%, the Fbg (72 h, time 3 day) was 212.6 mg/dL and the Hb (72 h, time 3 day) was 13.7 g/dL. For the same compound, the Ht (72 h, time 3 day) was 38.5%, the Lym (72 h, time 3 day) was 84% and the MCH (72 h, time 3 day) was 21.4 pg. The MCHC (72 h, time 3 day) was 35.5%, the MCV (72 h, time 3 day) was 60.1 fL and the Mono (72 h, time 3 day) was 2.6%. For the same compound, the Neu (72 h, time 3 day) was 11.2%, the PT (72 h, time 3 day) was 12.4 s and the Plat (72 h, time 3 day) was 149.4 x10_4/uL. For the same compound, the RBC (72 h, time 3 day) was 640.4 x10_4/ul, the Ret (72 h, time 3 day) was 3.5% and the WBC (72 h, time 3 day) was 84 x10_2/uL. The KIDNEY_L (72 h, time 3 day) was 1.1 g, the KIDNEY_R (72 h, time 3 day) was 1 g and the KIDNEY_TOTAL (72 h, time 3 day) was 2.1 g. For the same compound, the LIVER (72 h, time 3 day) was 13 g, the ALP (72 h, time 3 day) was 1140 IU/L and the ALT (72 h, time 3 day) was 40.2 IU/L. The AST (72 h, time 3 day) was 68.6 IU/L, the BUN (72 h, time 3 day) was 13.8 mg/dL and the CRE (72 h, time 3 day) was 0.4 mg/dL. The DBIL (72 h, time 3 day) was 0.084 mg/dL, the GLC (72 h, time 3 day) was 175.4 mg/dL and the IP (72 h, time 3 day) was 7 mg/dL. The K (72 h, time 3 day) was 4 meq/L, the LDH (72 h, time 3 day) was 134.6 IU/L and the Na (72 h, time 3 day) was 142 meq/L. It also gave a PL (72 h, time 3 day) of 163.2 mg/dL, an RALB (72 h, time 3 day) of 3.2 g/dL and a TBIL (72 h, time 3 day) of 0.1 mg/dL. The TC (72 h, time 3 day) was 93 mg/dL, the TG (72 h, time 3 day) was 55.6 mg/dL and the TP (72 h, time 3 day) was 5.2 g/dL. For the same compound, the gamma-GTP (72 h, time 3 day) was 1.6 IU/L, the TERMINAL_BW ([…], time 7 day) was 243.3 g and the TERMINAL_BW ([…], time 14 day) was 287.4 g. It also gave a TERMINAL_BW ([…], time 28 day) of 349.5 g, an APTT ([…], time 7 day) of 25.4 s and a Bas ([…], time 7 day) of 0.4%. The Eos ([…], time 7 day) was 1%, the Fbg ([…], time 7 day) was 249.2 mg/dL and the Hb ([…], time 7 day) was 13.3 g/dL. For the same compound, the Ht ([…], time 7 day) was 37.1%, the Lym ([…], time 7 day) was 73.6% and the MCH ([…], time 7 day) was 20.6 pg. The MCHC ([…], time 7 day) was 35.8%, the MCV ([…], time 7 day) was 57.3 fL and the Mono ([…], time 7 day) was 3%. It also gave a Neu ([…], time 7 day) of 20.8%, a PT ([…], time 7 day) of 12.5 s and a Plat ([…], time 7 day) of 141.7 x10_4/uL. The RBC ([…], time 7 day) was 646.4 x10_4/ul, the Ret ([…], time 7 day) was 4.9% and the WBC ([…], time 7 day) was 116.7 x10_2/uL. For the same compound, the APTT ([…], time 14 day) was 27.3 s, the Bas ([…], time 14 day) was 0.6% and the Eos ([…], time 14 day) was 1%. For the same compound, the Fbg ([…], time 14 day) was 229.6 mg/dL, the Hb ([…], time 14 day) was 14.1 g/dL and the Ht ([…], time 14 day) was 39.4%. It also gave a Lym ([…], time 14 day) of 82.4%, an MCH ([…], time 14 day) of 20.9 pg and an MCHC ([…], time 14 day) of 35.9%. It also gave an MCV ([…], time 14 day) of 58.1 fL, a Mono ([…], time 14 day) of 2.2% and a Neu ([…], time 14 day) of 12.8%. For the same compound, the PT ([…], time 14 day) was 12.5 s, the Plat ([…], time 14 day) was 123 x10_4/uL and the RBC ([…], time 14 day) was 679 x10_4/ul. It also gave a Ret ([…], time 14 day) of 4.4%, a WBC ([…], time 14 day) of 118.3 x10_2/uL and an APTT ([…], time 28 day) of 22.4 s. It also gave a Bas ([…], time 28 day) of 0.8%, an Eos ([…], time 28 day) of 1.4% and a Fbg ([…], time 28 day) of 261.8 mg/dL. The Hb ([…], time 28 day) was 14.8 g/dL, the Ht ([…], time 28 day) was 39.8% and the Lym ([…], time 28 day) was 77.4%. It also gave an MCH ([…], time 28 day) of 19.7 pg, an MCHC ([…], time 28 day) of 37.1% and an MCV ([…], time 28 day) of 53.3 fL. The Mono ([…], time 28 day) was 2.4%, the Neu ([…], time 28 day) was 17.6% and the PT ([…], time 28 day) was 11.8 s. The Plat ([…], time 28 day) was 108.6 x10_4/uL, the RBC ([…], time 28 day) was 747.8 x10_4/ul and the Ret ([…], time 28 day) was 3.2%. The WBC ([…], time 28 day) was 125.4 x10_2/uL, the KIDNEY_L ([…], time 7 day) was 1.1 g and the KIDNEY_R ([…], time 7 day) was 1.1 g. It also gave a KIDNEY_TOTAL ([…], time 7 day) of 2.2 g, a KIDNEY_L ([…], time 14 day) of 1.3 g and a KIDNEY_R ([…], time 14 day) of 1.3 g. It also gave a KIDNEY_TOTAL ([…], time 14 day) of 2.6 g, a KIDNEY_L ([…], time 28 day) of 1.5 g and a KIDNEY_R ([…], time 28 day) of 1.5 g. For the same compound, the KIDNEY_TOTAL ([…], time 28 day) was 3.1 g, the LIVER ([…], time 7 day) was 14.1 g and the LIVER ([…], time 14 day) was 16.6 g. The LIVER ([…], time 28 day) was 20 g, the ALP ([…], time 7 day) was 768.8 IU/L and the ALT ([…], time 7 day) was 49.8 IU/L. The AST ([…], time 7 day) was 78 IU/L, the BUN ([…], time 7 day) was 15.8 mg/dL and the CRE ([…], time 7 day) was 0.4 mg/dL. It also gave a DBIL ([…], time 7 day) of 0.084 mg/dL, a GLC ([…], time 7 day) of 172.6 mg/dL and an IP ([…], time 7 day) of 7.3 mg/dL. For the same compound, the K ([…], time 7 day) was 4.1 meq/L, the LDH ([…], time 7 day) was 186 IU/L and the Na ([…], time 7 day) was 142.4 meq/L. For the same compound, the PL ([…], time 7 day) was 222.6 mg/dL, the RALB ([…], time 7 day) was 3.5 g/dL and the TBIL ([…], time 7 day) was 0.1 mg/dL. The TC ([…], time 7 day) was 126.8 mg/dL, the TG ([…], time 7 day) was 67.4 mg/dL and the TP ([…], time 7 day) was 6 g/dL. It also gave a gamma-GTP ([…], time 7 day) of 1.8 IU/L, an ALP ([…], time 14 day) of 721.2 IU/L and an ALT ([…], time 14 day) of 35.2 IU/L. For the same compound, the AST ([…], time 14 day) was 62.4 IU/L, the BUN ([…], time 14 day) was 15.2 mg/dL and the CRE ([…], time 14 day) was 0.4 mg/dL. It also gave a DBIL ([…], time 14 day) of 0.08 mg/dL, a GLC ([…], time 14 day) of 201.4 mg/dL and an IP ([…], time 14 day) of 8.4 mg/dL. It also gave a K ([…], time 14 day) of 3.9 meq/L, an LDH ([…], time 14 day) of 141 IU/L and a Na ([…], time 14 day) of 142.2 meq/L. The PL ([…], time 14 day) was 182.8 mg/dL, the RALB ([…], time 14 day) was 3.4 g/dL and the TBIL ([…], time 14 day) was 0.1 mg/dL. For the same compound, the TC ([…], time 14 day) was 99.2 mg/dL, the TG ([…], time 14 day) was 53.6 mg/dL and the TP ([…], time 14 day) was 6 g/dL. The gamma-GTP ([…], time 14 day) was 2.4 IU/L, the ALP ([…], time 28 day) was 578.4 IU/L and the ALT ([…], time 28 day) was 47 IU/L. It also gave an AST ([…], time 28 day) of 67.6 IU/L, a BUN ([…], time 28 day) of 16.8 mg/dL and a CRE ([…], time 28 day) of 0.5 mg/dL. The DBIL ([…], time 28 day) was 0.086 mg/dL, the GLC ([…], time 28 day) was 197 mg/dL and the IP ([…], time 28 day) was 7.9 mg/dL. It also gave a K ([…], time 28 day) of 4 meq/L, an LDH ([…], time 28 day) of 196.6 IU/L and a Na ([…], time 28 day) of 141.6 meq/L. For the same compound, the PL ([…], time 28 day) was 206 mg/dL, the RALB ([…], time 28 day) was 3.7 g/dL and the TBIL ([…], time 28 day) was 0.1 mg/dL. It also gave a TC ([…], time 28 day) of 116.4 mg/dL, a TG ([…], time 28 day) of 62.4 mg/dL and a TP ([…], time 28 day) of 6.5 g/dL. It also gave a gamma-GTP ([…], time 28 day) of 2.6 IU/L.
